Experimental data as given in patent US10000773B2, “Cytochrome P450 and use thereof for the enzymatic oxidation of terpenes” (FIRMENICH SA, priority 2011, dated 2018).

Assays:
vetiver P450s = assay: Bioconversion of other monoterpene and sesquiterpene molecules using whole E. coli cells expressing the vetiver P450s and CPR; assay type: cell-based, Vetiveria zizanioides (L.) Nash; conditions: resting E. coli cells in potassium phosphate buffer as in Example 8
Description: The cells were harvested in exponential growing phase, centrifuged and resuspended in 0.5 volume of potassium phosphate buffer 50 mM pH 7.0 supplemented with 5% glycerol or 3% glucose. The substrate ((+)-zizaene) was added to a final concentration of 0.5 mg/ml as mixture composed of 10 mg Tween® 20 (sigma-Aldrich), 10 mg antifoam (Erol DF, PMC Ouvrie, Lesquin, France), 20 mg (+)-zizaene and 1 ml water. The conversion was allowed to proceed for 24 hours at 20° C. with moderate shaking. The media were extracted with 2 volumes of ethyl-acetate and the extracts were analyzed by GCMS on an Agilent 6890 Series GC system connected to an Agilent 5975 mass detector. The GC was equipped with 0.25 mm inner diameter by 30 m SPB-1 capillary column (Supelco, Bellefonte, Pa.). The carrier gas was He at a constant flow of 1 mL/min. The initial oven temperature was 50° C. (1 min hold) followed by a gradient of 10° C./min to 300° C. The identification of the products was based on the comparison of the mass spectra and retention indices with authentic standards and internal databases.
E. coli cells expressing the vetiver P450s and a CPR were prepared, grown and the bioconversions performed using resting cells in potassium phosphate buffer as described in Example 8.
Assays were performed with several terpene molecules and the formation of oxygenated terpene molecules was evaluated using GCMS analysis as described in Example 8.

[1] = tested on: heterologous P450 and CPR complex; assay type: cell-based, E. coli
Description: The oxidized products of (+)-zizaene can also be produced in E. coli cells engineered to produce sesquiterpenes from a carbon source such as glucose or glycerol. Plasmids were prepared consisting of the pCWori (Barnes H. J (1996) Method Enzymol. 272, 3-14) plasmid containing an operon composed of the P450, the P450-reductase and the terpene synthase. Two plasmids were thus prepared by inserting an RBS sequence and the optimized sequence encoding for the (+)-zizaene synthase (VzZS) after the stop codon of the CPR sequence in the pCW-2391-521-11 or pCW-2392-521-16.
The VzZS was amplified from pETDuet-VzZS-opt plasmid (as described in WO 2010/134004) using the primers 2401-VzZS-F (SEQ ID NO:33) and 2401-VzZS-R (SEQ ID NO:34). […]
OverExpress™ C43(DE3) E. coli cells (Lucigen® Corporation) were co-transformed with the plasmid pACYC-29258-4506 and the plasmid pCW-2401-521-11 or the plasmid pCW-2402-521-16. […] After 48 hours, the cultures were extracted with 2 volumes of tert-Butyl methyl ether (MTBE) and the extracts analyzed by GCMS as described in Example 8, except for the oven temperature that was initially set at 80° C. with one minute hold, followed by gradient of 10° C./min to 300° C.

VzP521-16-1 = assay: Bioconversion of (+)-zizaene using whole E. coli cells expressing VzP521-16-1 and a CPR; assay type: cell-based, Vetiveria zizanioides (L.) Nash; conditions: 24 hours at 20° C.
Description: (§1) The oxidation of (+)-zizaene can be performed using whole E. coli cells expressing the vetiver P450s and a CPR (bioconversion). Zizaene was prepared using engineered E. coli cells following the method described in the patent WO 2010/134004 and using the sesquiterpene synthase with the sequence accession number HI931369.
(§2) E. coli cells (BL21Star™(DE3) E. coli cells (Invitrogen Ltd) or JM109(DE3) (Promega)) were transformed with the plasmids pCW-2391-521-11 or pCW-2392-521-16 or cells were co-transformed with the plasmids pCW-218-521-11 or pCW-218-521-16 and pACYC-tcATR1-opt and were grown in TB medium supplemented with 3% glycerol or LB medium supplemented with 1% glucose. The cultures were incubated at 37° C. until reaching an optical density of 1. The cultures were then transferred to 28° C., 1 mM IPTG and 74 μg/ml δ-aminolevulinic acid were added and the culture were incubated for 24 hours.
(§3) The cells were harvested in exponential growing phase, centrifuged and resuspended in 0.5 volume of potassium phosphate buffer 50 mM pH 7.0 supplemented with 5% glycerol or 3% glucose. […] The media were extracted with 2 volumes of ethyl-acetate and the extracts were analyzed by GCMS on an Agilent 6890 Series GC system connected to an Agilent 5975 mass detector. […]

VzP521-11-1 = assay: Bioconversion of (+)-zizaene using whole E. coli cells expressing VzP521-11-1 and a CPR; assay type: cell-based, Vetiveria zizanioides (L.) Nash; conditions: 24 hours at 20° C.
Description: as §1, §2, §3

C=C(C)C1CC=C(C)CC1 (single isomer, unassigned; (+)) [(+)-limonene]
bioconversion, formation of oxygenated terpene molecules (GCMS) (vetiver P450s): bioconversion was observed

C=C1[C@H]2CC[C@H](C)[C@@]23CC[C@@H](C3)C1(C)C [(+)-zizaene]
oxidation of the sesquiterpene produced in the engineered cells (GCMS) [1]: is oxidized by the heterologous P450 and CPR complex
bioconversion, formation of oxygenated terpene molecules (GCMS) (vetiver P450s): bioconversion was observed
oxidation products identified by GCMS (VzP521-16-1): khusimol, zizanal and zizanoic acid
oxidation of substrate (GCMS) (VzP521-16-1; substrate 0.5 mg/ml): oxidation of (+)-zizaene was observed
oxidation products identified by GCMS (VzP521-11-1): khusimol, zizanal and zizanoic acid
oxidation of substrate (GCMS) (VzP521-11-1; substrate 0.5 mg/ml): oxidation of (+)-zizaene was observed

C=C1CC[C@@H]2[C@H]([C@@H]3[C@H](C)CC[C@H]13)C2(C)C [alloaromadendrene]
bioconversion, formation of oxygenated terpene molecules (GCMS) (vetiver P450s): bioconversion was observed

CC1=CC[C@@]23C[C@@H]1C(C)(C)[C@@H]2CC[C@H]3C [alpha-cedrene]
bioconversion, formation of oxygenated terpene molecules (GCMS) (vetiver P450s): bioconversion was observed

CC1=CC[C@H]2[C@H]3[C@@H]1[C@]2(C)CC[C@H]3C(C)C [alpha-copaene]
bioconversion, formation of oxygenated terpene molecules (GCMS) (vetiver P450s): bioconversion was observed

CC1=CC[C@]23C[C@H]1C(C)(C)[C@@H]2CC[C@H]3C [alpha-funebrene]
bioconversion, formation of oxygenated terpene molecules (GCMS) (vetiver P450s): bioconversion was observed

C/C1=C\CC/C(C)=C/CC(C)(C)/C=C/C1 [alpha-humulene]
bioconversion, formation of oxygenated terpene molecules (GCMS) (vetiver P450s): bioconversion was observed

CC1=CC[C@@H]2[C@@H]3[C@H]1[C@@]2(C)CCCC3(C)C [alpha-longipinene]
bioconversion, formation of oxygenated terpene molecules (GCMS) (vetiver P450s): bioconversion was observed

CC1=CCC2CC1C2(C)C (stereo not drawn) [alpha-pinene]
bioconversion, formation of oxygenated terpene molecules (GCMS) (vetiver P450s): bioconversion was observed

C=C1CCCC(C)(C)[C@@]12CC=C(C)CC2 [beta-chamigrene]
bioconversion, formation of oxygenated terpene molecules (GCMS) (vetiver P450s): bioconversion was observed

C=C1CC[C@@]23C[C@@H]1C(C)(C)[C@@H]2CC[C@H]3C [beta-funebrene]
bioconversion, formation of oxygenated terpene molecules (GCMS) (vetiver P450s): bioconversion was observed

C=C1CCC2CC1C2(C)C (stereo not drawn) [beta-pinene]
bioconversion, formation of oxygenated terpene molecules (GCMS) (vetiver P450s): bioconversion was observed

C=C(C)[C@H]1C=C2[C@H](C)CC[C@@H]2[C@H](C)CC1 [gamma-gurjunene]
bioconversion, formation of oxygenated terpene molecules (GCMS) (vetiver P450s): bioconversion was observed

C=C1[C@H]2C[C@H]3[C@@H](C(C)C)CC[C@]1(C)[C@H]3C2 [isosativene]
bioconversion, formation of oxygenated terpene molecules (GCMS) (vetiver P450s): bioconversion was observed

CC1=C2CC[C@@H](C)[C@H]2[C@H]2[C@@H](CC1)C2(C)C [ledene]
bioconversion, formation of oxygenated terpene molecules (GCMS) (vetiver P450s): bioconversion was observed

CC1=CC[C@]2(C)CCCC(C)(C)[C@@]23C[C@@H]13 [thujopsene]
bioconversion, formation of oxygenated terpene molecules (GCMS) (vetiver P450s): bioconversion was observed

C=C(C)[C@@H]1CCC2=CCC[C@@H](C)[C@]2(C)C1 [valencene]
bioconversion, formation of oxygenated terpene molecules (GCMS) (vetiver P450s): bioconversion was observed

(−)-limonene
bioconversion, formation of oxygenated terpene molecules (GCMS) (vetiver P450s): bioconversion was observed

alpha gurjunene
bioconversion, formation of oxygenated terpene molecules (GCMS) (vetiver P450s): bioconversion was observed

alpha neoclovenene
bioconversion, formation of oxygenated terpene molecules (GCMS) (vetiver P450s): bioconversion was observed
